According to PubChem BioAssay (NCI):
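Each compound was tested at five concentrations against cells in 96-well plates for 48 hours. GI50 = concentration required for 50% inhibition of growth. TGI marks complete inhibition of growth.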

How the values were obtained:
Assay in all cases: NCI anticancer screen, dose series, 48 h; in the data active means GI50 below about 0.43 µM; inactive means the rest
786-0 renal = system: 786-0 renal
A498 renal = system: A498 renal
A549 NSCLC = system: A549 NSCLC
ACHN renal = system: ACHN renal
BT-549 breast = system: BT-549 breast
CAKI-1 renal = system: CAKI-1 renal
CCRF-CEM leukemia = system: CCRF-CEM leukemia
COLO 205 colon = system: COLO 205 colon
DU-145 prostate = system: DU-145 prostate
EKVX NSCLC = system: EKVX NSCLC
HCC-2998 colon = system: HCC-2998 colon
HCT-116 colon = system: HCT-116 colon
HCT-15 colon = system: HCT-15 colon
HL-60(TB) leukemia = system: HL-60(TB) leukemia
HOP-62 NSCLC = system: HOP-62 NSCLC
HOP-92 NSCLC = system: HOP-92 NSCLC
HS 578T breast = system: HS 578T breast
HT29 colon = system: HT29 colon
IGROV1 ovarian = system: IGROV1 ovarian
K-562 leukemia = system: K-562 leukemia
KM12 colon = system: KM12 colon
LOX IMVI melanoma = system: LOX IMVI melanoma
M14 melanoma = system: M14 melanoma
MALME-3M melanoma = system: MALME-3M melanoma
MCF7 breast = system: MCF7 breast
MDA-MB-231 breast = system: MDA-MB-231 breast
MDA-MB-435 = system: MDA-MB-435
MDA-MB-468 breast = system: MDA-MB-468 breast
MOLT-4 leukemia = system: MOLT-4 leukemia

Cn1cc(-c2cc(N)n3nc(-c4c[nH]c5ccc(F)cc45)cc3n2)c2cc(Br)cnc21
22.2 µM: TGI (786-0 renal)
29.7 µM: TGI (MALME-3M melanoma)
> 100 µM: TGI (A498 renal) | TGI (A549 NSCLC) | TGI (BT-549 breast) | TGI (CAKI-1 renal) | TGI (COLO 205 colon) | TGI (DU-145 prostate) | TGI (EKVX NSCLC) | TGI (HCT-116 colon) | TGI (HL-60(TB) leukemia) | TGI (HOP-62 NSCLC) | TGI (HOP-92 NSCLC) | TGI (HS 578T breast) | TGI (IGROV1 ovarian) | TGI (KM12 colon) | TGI (MDA-MB-435)
10.7 µM: TGI (HCT-15 colon)
22.7 µM: TGI (MCF7 breast)
18.5 µM: TGI (MDA-MB-468 breast)
3.69 µM: TGI (LOX IMVI melanoma)
24.4 µM: TGI (HT29 colon)
27.4 µM: TGI (M14 melanoma)
20.3 µM: TGI (HCC-2998 colon)
inactive: GI50 (786-0 renal) 8.47 µM | GI50 (A498 renal) > 100 µM | GI50 (A549 NSCLC) 16.4 µM | GI50 (ACHN renal) 6.52 µM | GI50 (BT-549 breast) > 100 µM | GI50 (CAKI-1 renal) 6.43 µM | GI50 (CCRF-CEM leukemia) 3.45 µM | GI50 (COLO 205 colon) 55.5 µM | GI50 (DU-145 prostate) 80.8 µM | GI50 (EKVX NSCLC) > 100 µM | GI50 (HCC-2998 colon) 4.2 µM | GI50 (HCT-116 colon) 32.2 µM | GI50 (HCT-15 colon) 2.55 µM | GI50 (HL-60(TB) leukemia) 9.35 µM | GI50 (HOP-62 NSCLC) 62.2 µM | GI50 (HOP-92 NSCLC) 20.4 µM | GI50 (HS 578T breast) > 100 µM | GI50 (HT29 colon) 5.04 µM | GI50 (IGROV1 ovarian) 14.3 µM | GI50 (K-562 leukemia) 4.09 µM | GI50 (KM12 colon) 4 µM | GI50 (LOX IMVI melanoma) 1.96 µM | GI50 (M14 melanoma) 12.3 µM | GI50 (MALME-3M melanoma) 10.4 µM | GI50 (MCF7 breast) 4.11 µM | GI50 (MDA-MB-231 breast) 5.28 µM | GI50 (MDA-MB-435) 21.6 µM | GI50 (MDA-MB-468 breast) 4.64 µM | GI50 (MOLT-4 leukemia) 2.42 µM
43.4 µM: TGI (ACHN renal)
20.2 µM: TGI (CCRF-CEM leukemia)
24.5 µM: TGI (MDA-MB-231 breast)
50.2 µM: TGI (K-562 leukemia)
